Article PMC5817852 (The Open Medicinal Chemistry Journal, 2018)
Read-outs that look alike come from different tables or passages of the source.

Columns and labels:
[1] = system: MDA-MB-231 breast cancer cell line; assay: qHTS cell viability screen (Cell Titer Glo), MDA-MB-231; type: cell-based
[2] = system: HT29 colorectal carcinoma; assay: qHTS cell viability screen (Cell Titer Glo), HT29; type: cell-based
[3] = system: BJ cells, normal human foreskin fibroblast cell line; assay: BJ cell cytotoxicity counter screen; conditions: read-out: EC50 BJ (cytotoxicity); BJ normal human foreskin fibroblasts; confidence intervals in parentheses
Description: (§1) Most analogs in the presented series are lipophilic while also containing a positively charged amine. Lipophilic basic amines can accumulate in cell membranes if their lipophilic atom groups form favorable non-polar contacts with lipid chains while their charged amine is interacting with fatty acid head groups. Such association with lipids can lead to cytotoxicity through membrane destabilization. Therefore, we evaluated a number of representative compounds against BJ cells, a normal human foreskin fibroblast cell line, where cytotoxicity was determined at 10 µM drug concentration, as described previously.
(§2) minimum locked at 0 and 100 respectively.
(§3) children with ALL in relapse.
(§4) foreskin fibroblast cell line (BJ).
(§5) Table 2. […] SSA: Sulindac sulfide

[4] = system: PC3 prostate cancer cell line; assay: qHTS cell viability screen (Cell Titer Glo), PC3; type: cell-based; conditions: PC3 prostate, 72 hours, cell viability Cell Titer Glo, read-out: CC50 PC3
[5] = BJ cell cytotoxicity counter screen; conditions: human, BJ cells (normal human foreskin fibroblast cell line)
Description: as §1, §2, §3, §4, §5

[6] = system: REH cells (precursor B-cell ALL); assay: Additional cancer cell line panel, REH; type: cell-based, human; conditions: Homo sapiens, REH; confidence intervals in parentheses; NA: not active; read-out: EC50 REH
[7] = MDA-MB-231 breast, 96 hours, cell viability Cell Titer Glo, read-out: CC50 MDA-MB-231
[8] = HT29 colorectal carcinoma, 72 hours, cell viability Cell Titer Glo, read-out: CC50 HT29
[9] = Homo sapiens, MDA-MB-231, 96 h, MDA-MB-231 breast, 96 hours, cell viability Cell Titer Glo, read-out: CC50 MDA-MB-231
[10] = Homo sapiens, HT-29, 72 h, HT29 colorectal carcinoma, 72 hours, cell viability Cell Titer Glo, read-out: CC50 HT29

melting point [°C] | SMILES | CC50 [1, 7] [µM] | CC50 [2, 8] [µM] | CC50 [4] [µM] | CC50 [1, 9] [µM] | CC50 [2, 10] [µM] | CC50 ([4]; 72 h) [µM] | other results
– | CSc1ccc(/C=C2/C(C)=C(CCNCc3ccccc3)c3cc(F)ccc32)cc1 [Compound 7] | 46.5 ± 1.92 | 21.8 ± 2.29 | > 50 | – | – | – | EC50 [3]: > 7.57 µM
– | CSc1ccc(/C=C2/C(C)=C(CCNCc3ccco3)c3cc(F)ccc32)cc1 [Compound 8] | 7.77 ± 0.54 | 4.27 ± 0.33 | 9.94 ± 0.77 | – | – | – | EC50 [3]: > 7.57 µM
– | CSc1ccc(/C=C2/C(C)=C(CCNCCN3CCCCC3)c3cc(F)ccc32)cc1 [Compound 9] | 3.73 ± 0.21 | 1.81 ± 0.06 | 4.78 ± 0.2 | – | – | – | EC50 [3]: > 7.57 µM
– | CSc1ccc(/C=C2/C(C)=C(CCNCCN(C)C)c3cc(F)ccc32)cc1 [Compound 10] | – | – | – | 3.42 ± 1.5 | 1.97 ± 0.18 | 4.38 ± 0.25 | –
– | CC1=C(CCNCc2ccccc2)c2cc(F)ccc2/C1=C\c1ccc([S+](C)[O-])cc1 (centres unmarked) [Compound 11] | – | – | – | 48.6 ± 7.85 | 15.1 ± 1.42 | 41.5 ± 5 | –
96 to 98 | CC1=C(CCNCc2ccccc2)c2cc(F)ccc2/C1=C\c1ccc(S(C)(=O)=O)cc1 [Compound 12] | – | – | – | 4.52 ± 0.77 | 3.39 ± 0.28 | 7.02 ± 0.48 | –
– | CSc1ccc(/C=C2/C(C)=C(CCN)c3cc(F)ccc32)cc1 [Compound 13] | – | – | – | 7.2 ± 0.29 | 4.05 ± 0.16 | 7.46 ± 0.46 | EC50 [5]: > 7.57 µM
168 to 170 | CSc1ccc(/C=C2/C(C)=C(CCNC(=O)c3ccco3)c3cc(F)ccc32)cc1 [Compound 14] | – | – | – | 16.8 ± 3.2 | 9.24 ± 1.18 | 8.92 ± 0.83 | EC50 [5]: > 7.57 µM
– | CSc1ccc(/C=C2/C(C)=C(CN)c3cc(F)ccc32)cc1 [Compound 16] | – | – | – | 19.3 ± 2.12 | 16 ± 6.08 | 33.6 ± 6.59 | –
108 to 110 | COc1cc(/C=C2/C(C)=C(CN)c3cc(F)ccc32)cc(OC)c1OC [Compound 17] | – | – | – | 15.3 ± 4.44 | 14.6 ± 2.42 | 29.7 ± 4.49 | –
– | CSc1ccc(/C=C2/C(C)=C(CNC(=O)Cc3ccccc3)c3cc(F)ccc32)cc1 [Compound 18] | – | – | – | 4.06 ± 1.97 | 3.56 ± 1.25 | 18.9 ± 9.71 | –
– | CSc1ccc(/C=C2/C(C)=C(CNC(=O)c3ccco3)c3cc(F)ccc32)cc1 [Compound 19] | 41.2 ± 7.6 | 33.2 ± 3.43 | 39.8 ± 6.81 | – | – | – | –
– | CSc1ccc(/C=C2/C(C)=C(CNC(=O)CN)c3cc(F)ccc32)cc1 [Compound 21] | 7.3 ± 0.62 | 5.49 ± 0.21 | 7.27 ± 0.31 | – | – | – | EC50 [3]: > 22.7 µM
146 to 148 | CSc1ccc(/C=C2/C(C)=C(CNC(=O)[C@@H](N)CO)c3cc(F)ccc32)cc1 [Compound 22] | – | – | – | 7.43 ± 0.87 | 5.98 ± 0.24 | 6.03 ± 0.41 | EC50 [5]: > 22.7 µM
– | CSc1ccc(/C=C2/C(C)=C(CNC(=O)[C@@H]3CCCN3)c3cc(F)ccc32)cc1 [Compound 25] | – | – | – | 4.35 ± 0.19 | 3.15 ± 0.17 | 6.66 ± 0.42 | EC50 [6]: 150 µM; EC50 [5]: > 22.7 µM
– | COc1cc(/C=C2/C(C)=C(CNC(=O)c3ccco3)c3cc(F)ccc32)cc(OC)c1OC [Compound 27] | > 50 | > 50 | > 50 | – | – | – | –
183 to 185 | COc1cc(/C=C2/C(C)=C(CNC(C)=O)c3cc(F)ccc32)cc(OC)c1OC [Compound 28] | – | – | – | 5.77 ± 1.55 | 6.44 ± 1.4 | 23.3 ± 2.61 | –
159 to 160 | CSc1ccc(/C=C2/C(C)=C(CNS(C)(=O)=O)c3cc(F)ccc32)cc1 [Compound 34] | – | – | – | 9.06 ± 2.26 | 7.43 ± 0.48 | 20.2 ± 3.2 | EC50 [5]: > 22.7 µM
131 to 133 | CCS(=O)(=O)NCC1=C(C)/C(=C/c2ccc(SC)cc2)c2ccc(F)cc21 [Compound 35] | – | – | – | 11.9 ± 2.61 | 8.33 ± 1.64 | 22.6 ± 3.25 | –
141 to 143 | CSc1ccc(/C=C2/C(C)=C(CNS(=O)(=O)c3ccccc3)c3cc(F)ccc32)cc1 [Compound 36] | – | – | – | 17.7 ± 2.1 | 9.94 ± 0.83 | 39.6 ± 14.8 | –
– | CSc1ccc(/C=C2/C(C)=C(CNS(=O)(=O)c3ccc(C)cc3)c3cc(F)ccc32)cc1 [Compound 37] | 20.5 ± 5.18 | 8.08 ± 0.6 | > 50 | – | – | – | –
94 to 95 | CSc1ccc(/C=C2/C(C)=C(CNS(=O)(=O)c3cccc4ccccc34)c3cc(F)ccc32)cc1 [Compound 38] | – | – | – | 38.9 ± 10.3 | 17 ± 3.73 | > 50 | –

melting point [°C] | SMILES | CC50 [1, 7] [µM] | CC50 [2, 8] [µM] | CC50 [4] [µM] | CC50 [1, 9] [µM] | CC50 [2, 10] [µM] | CC50 ([4]; 72 h) [µM] | other results
152 to 154 | CSc1ccc(/C=C2/C(C)=C(CNS(=O)(=O)c3ccc4ccccc4c3)c3cc(F)ccc32)cc1 [Compound 39] | – | – | – | 12.9 ± 2.39 | 25.6 ± 5.91 | > 50 | –
– | CSc1ccc(/C=C2/C(C)=C(CNS(=O)(=O)c3cccc4c(N(C)C)cccc34)c3cc(F)ccc32)cc1 [Compound 40] | > 50 | 38.4 ± 10.1 | > 50 | – | – | – | –
– | COc1cc(/C=C2/C(C)=C(CNS(C)(=O)=O)c3cc(F)ccc32)cc(OC)c1OC [Compound 41] | 12.9 ± 1.79 | 20 ± 4.86 | 18.9 ± 2.47 | – | – | – | –
132 to 134 | CCS(=O)(=O)NCC1=C(C)/C(=C/c2cc(OC)c(OC)c(OC)c2)c2ccc(F)cc21 [Compound 42] | – | – | – | 6.58 ± 1.39 | 15.6 ± 5.56 | 15.1 ± 1.84 | –
– | COc1cc(/C=C2/C(C)=C(CNS(=O)(=O)c3ccccc3)c3cc(F)ccc32)cc(OC)c1OC [Compound 43] | 16.3 ± 3.96 | 43.8 ± 23 | 40.9 ± 16.8 | – | – | – | –
– | COc1cc(/C=C2/C(C)=C(CNS(=O)(=O)c3ccc(C)cc3)c3cc(F)ccc32)cc(OC)c1OC [Compound 44] | 44.5 ± 25.7 | > 50 | > 50 | – | – | – | –
– | COc1cc(/C=C2/C(C)=C(CNS(=O)(=O)c3cccc4ccccc34)c3cc(F)ccc32)cc(OC)c1OC [Compound 45] | > 50 | > 50 | > 50 | – | – | – | –
118 to 120 | COc1cc(/C=C2/C(C)=C(CNS(=O)(=O)c3ccc4ccccc4c3)c3cc(F)ccc32)cc(OC)c1OC [Compound 46] | – | – | – | > 50 | > 50 | > 50 | –
– | COc1cc(/C=C2/C(C)=C(CNS(=O)(=O)c3cccc4c(N(C)C)cccc34)c3cc(F)ccc32)cc(OC)c1OC [Compound 47] | > 50 | > 50 | > 50 | – | – | – | –
– | CSc1ccc(/C=C2/C(C)=C(CN(Cc3ccccc3)Cc3ccccc3)c3cc(F)ccc32)cc1 [Compound 48] | – | – | – | > 50 | > 50 | > 50 | –
– | CSc1ccc(/C=C2/C(C)=C(CN(Cc3ccc(F)cc3)Cc3ccc(F)cc3)c3cc(F)ccc32)cc1 [Compound 50] | – | – | > 50 | – | – | – | CC50 [1]: > 50 µM; CC50 [2]: > 50 µM
– | CSc1ccc(/C=C2/C(C)=C(CN(Cc3ccc(N(C)C)cc3)Cc3ccc(N(C)C)cc3)c3cc(F)ccc32)cc1 [Compound 51] | – | – | > 50 | – | – | – | CC50 [1]: > 50 µM; CC50 [2]: > 50 µM
– | CSc1ccc(/C=C2/C(C)=C(CN(Cc3ccc4ccccc4c3)Cc3ccc4ccccc4c3)c3cc(F)ccc32)cc1 [Compound 52] | – | – | > 50 | – | – | – | CC50 [1]: > 50 µM; CC50 [2]: > 50 µM
– | CSc1ccc(/C=C2/C(C)=C(CN(CCc3ccccc3)CCc3ccccc3)c3cc(F)ccc32)cc1 [Compound 53] | – | – | > 50 | – | – | – | CC50 [1]: > 50 µM; CC50 [2]: > 50 µM
– | CSc1ccc(/C=C2/C(C)=C(CN(Cc3ccco3)Cc3ccco3)c3cc(F)ccc32)cc1 [Compound 54] | – | – | > 50 | – | – | – | CC50 [1]: 48.8 ± 20.3 µM; CC50 [2]: > 50 µM
– | COc1cc(/C=C2/C(C)=C(CN(Cc3ccccc3)Cc3ccccc3)c3cc(F)ccc32)cc(OC)c1OC [Compound 55] | – | – | > 50 | – | – | – | CC50 [1]: > 50 µM; CC50 [2]: > 50 µM
– | COc1cc(/C=C2/C(C)=C(CN(Cc3ccc(F)cc3)Cc3ccc(F)cc3)c3cc(F)ccc32)cc(OC)c1OC [Compound 57] | – | – | > 50 | – | – | – | CC50 [1]: > 50 µM; CC50 [2]: > 50 µM
95 to 97 | COc1cc(/C=C2/C(C)=C(CN(Cc3ccc4ccccc4c3)Cc3ccc4ccccc4c3)c3cc(F)ccc32)cc(OC)c1OC [Compound 58] | – | – | – | > 50 | > 50 | > 50 | –
– | COc1ccc(CN(CC2=C(C)/C(=C/c3cc(OC)c(OC)c(OC)c3)c3ccc(F)cc32)Cc2ccc(OC)cc2)cc1 [Compound 59] | – | – | > 50 | – | – | – | CC50 [1]: > 50 µM; CC50 [2]: > 50 µM
– | COc1cc(/C=C2/C(C)=C(CN(CCc3ccccc3)CCc3ccccc3)c3cc(F)ccc32)cc(OC)c1OC [Compound 60] | – | – | – | > 50 | > 50 | > 50 | –
– | COc1cc(/C=C2/C(C)=C(CN(Cc3ccco3)Cc3ccco3)c3cc(F)ccc32)cc(OC)c1OC [Compound 61] | – | – | > 50 | – | – | – | CC50 [1]: > 50 µM; CC50 [2]: > 50 µM
